Experimental data reported in patent US20110177026A1 (priority 2005, published 2011).
Like-named read-outs stand apart in the source and are kept apart here.

Assays:
Format in all cases: cell-based
[1] = test system: Vesicular stomatitis virus (VSV) Indiana serotype
[2] = test system: BVDV cytopathic strain NADL
BVDV strain NADL = assay: microbe, parasite or virus in culture
[3] = VSV-infected cells at MOI=0.01, concentration of 1 mM
[4] = cells infected with VSV at MOI>1

| Compound | antiviral activity [1, 3] | antiviral activity [1, 4] | antiviral activity [2] | inhibition of BVDV replication (BVDV strain NADL) | EC50 (BVDV strain NADL; Bovine viral diarrhea virus isolates and strains, MDBK, read-out: Dm) [µM] |
| --- | --- | --- | --- | --- | --- |
| O[C@H]1[C@H](O)[C@@H](O)CN2CC[C@H](O)[C@H]12 [CTS, Castanospermine] | exhibited antiviral activity | none | exhibited antiviral activity |  |  |
| CC1OC(OC2C(CO)OC(OC3C(CO)OC(O)C(O)C3O)C(O)C2O)C(O)C(O)C1NC1C=C(CO)C(O)C(O)C1O [acarbose, O-4,6-dideoxy-4-[[(1S,4R,5S,6S)-4,5,6-trihydroxy-3-(hydroxymethyl)-2-cyclohexen-1-yl]amino]-α-D-glucopyranosyl-(1→4)-O-α-D-glucopyranosyl-(1→4)-D-glucose] | exhibited antiviral activity | none | only the positive control CTS exhibited antiviral activity | potent antiviral agents that inhibit BVDV replication |  |
| OCCN1CC(O)C(O)C(O)C1CO (stereo not drawn) [miglitol, 3,4,5-piperidinetriol, 1-(2-hydroxyethyl)-2-(hydroxymethyl)-, [2R-(2α, 3β,4α,5β)]] | exhibited antiviral activity | none | only the positive control CTS exhibited antiviral activity | potent antiviral agents that inhibit BVDV replication | 221 |
